Values quoted from earlier work, collected in patent publication US3981916A, “Reduction of nitroparaffin substrates to their corresponding oximes using a silver salt catalyst” (priority 1970, dated 1976).

settings: 25°C, aqueous solution; literature values (Table I)

Question: With `NCCN` [Ethylenediamine] as the molecule, how does the “pKa (First Acid Dissociation Constant)” value read?
Answer: Its value is 9.98.

Question: With `CN(C)C(=N)N(C)C` [Tetramethylguanidine] as the molecule, how does the “pKa (First Acid Dissociation Constant)” value read?
Answer: Its value is 11.50.

Question: For `NCCNCCNCCN` [Triethylenetetramine], which “pKa (First Acid Dissociation Constant)” value is on record?
Answer: The value was 9.92.

same assay, conditions: water

Question: With `NCCCN` [1,3-diaminopropane] as the molecule, how does the “pKa (First Acid Dissociation Constant)” value read?
Answer: Its value is 10.54.

Question: With `NCCCCCCN` [1,6-diaminohexane] as the molecule, how does the “pKa (First Acid Dissociation Constant)” value read?
Answer: Its value is 11.1.

Question: Which “pKa (First Acid Dissociation Constant)” value does the source give for `NCCCNCCCN` [3,3'-iminobispropylamine] here?
Answer: Its value is 10.70.

Question: For `OCCNCCO` [Diethanolamine], which “pKa (First Acid Dissociation Constant)” value is on record?
Answer: The value was 9.35.

Question: For `CN(C)CCN(C)C` [N,N,N,N',-Tetramethyl-ethylenediamine], which “pKa (First Acid Dissociation Constant)” value is on record?
Answer: Its value is 5.85.

Question: For `NCCNCCNCCNCCN` [Tetraethylenepentamine], which “pKa (First Acid Dissociation Constant)” value is on record?
Answer: The value was 9.9.

Question: With `CCCCN` [n-Butylamine] as the molecule, how does the “pKa (First Acid Dissociation Constant)” value read?
Answer: The value was 10.59.

Question: Which “pKa (First Acid Dissociation Constant)” value does the source give for `CCCCCCN` [n-Hexylamine] here?
Answer: Its value is 10.40.
